From ChEMBL document CHEMBL1155395, “Discovery of substituted biphenyl imidazoles as potent, bioavailable bombesin receptor subtype-3 agonists” (Bioorg Med Chem Lett, 2010) come the findings set out here.

Common to all, as to format: functional, cell-based
Assay [1] deals with T1, Bombesin receptor subtype-3 (Mus musculus) (UniProt O54798).
T1 sequence (whole entry): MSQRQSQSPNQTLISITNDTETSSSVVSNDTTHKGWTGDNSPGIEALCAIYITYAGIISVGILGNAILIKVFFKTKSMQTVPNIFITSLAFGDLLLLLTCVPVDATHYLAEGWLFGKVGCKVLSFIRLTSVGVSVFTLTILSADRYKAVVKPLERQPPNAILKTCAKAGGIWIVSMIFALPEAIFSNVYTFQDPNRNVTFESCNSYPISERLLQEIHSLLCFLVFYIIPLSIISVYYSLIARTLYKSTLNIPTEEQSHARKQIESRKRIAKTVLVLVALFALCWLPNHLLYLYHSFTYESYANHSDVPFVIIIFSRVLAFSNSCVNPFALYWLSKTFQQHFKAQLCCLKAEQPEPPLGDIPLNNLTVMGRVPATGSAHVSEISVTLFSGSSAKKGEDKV
Briefly: Agonistic activity at mouse BRS3 expressed in HEK293AEO cells at 10 uM by aequorin bioluminescence assay relative to dY peptide.

The target of assay [2] is T2, Bombesin receptor subtype-3 (Homo sapiens) (UniProt P32247).
T2 sequence (whole entry): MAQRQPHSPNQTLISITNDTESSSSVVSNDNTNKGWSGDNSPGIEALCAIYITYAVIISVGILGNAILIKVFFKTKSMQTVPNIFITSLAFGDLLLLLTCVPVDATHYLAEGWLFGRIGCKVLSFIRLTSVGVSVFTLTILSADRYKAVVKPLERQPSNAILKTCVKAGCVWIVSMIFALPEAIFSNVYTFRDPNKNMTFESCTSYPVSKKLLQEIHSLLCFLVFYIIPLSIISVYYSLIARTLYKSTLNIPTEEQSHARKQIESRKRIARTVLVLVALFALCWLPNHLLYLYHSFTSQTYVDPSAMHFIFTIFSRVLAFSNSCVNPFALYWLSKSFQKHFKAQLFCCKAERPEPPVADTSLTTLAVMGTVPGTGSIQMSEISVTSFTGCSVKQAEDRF
Briefly: Agonistic activity at human BRS3 expressed in HEK293AEO at 10 uM cells by aequorin bioluminescence assay relative to dY peptide.

Assay [3] has as its target T3, Bombesin receptor subtype-3 (Homo sapiens, UniProt P32247).
T3 sequence (P32247 whole entry): T2 sequence (whole entry)
As to the kind of experiment: Agonistic activity at human BRS3 expressed in HEK293AEO cells by aequorin bioluminescence assay.

Assay [4] deals with T4, Bombesin receptor subtype-3 (Mus musculus, UniProt O54798).
T4 sequence (O54798 whole entry): T1 sequence (whole entry)
As to the kind of experiment: Agonistic activity at mouse BRS3 expressed in HEK293AEO cells by aequorin bioluminescence assay.

`O=C(O)c1ccccc1-c1ccc(CCc2ncc(CC3CCCCCC3)[nH]2)cc1`: the Activity was determined as 102% in assay [1] and 106% in assay [2]. The half-maximal effective concentration (EC50) in assay [3] was 88 nM; in assay [4], 5.7 nM.

As to `O=C(O)c1ccccc1-c1ccc(CCc2nc(-c3ccccc3)c[nH]2)cc1`, the concentration giving a half-maximal response (EC50) in assay [3] turned out to be 4950 nM; in assay [4] it was 872 nM.

Turning to `O=C(O)c1ccccc1-c1ccc(CCc2ncc(Cc3cccc(F)c3)[nH]2)cc1`, the Activity in assay [1] is 108%; in assay [2], 107%. For the same compound, the values for the EC50 in assay [3] and in assay [4] were 159 nM and 7.9 nM, respectively.

Regarding `CCCCc1cnc(C(Cc2ccc(-c3ccccc3C(=O)O)cc2)C(C)C)[nH]1` (stereo not drawn), the Activity in assay [1] was 87%; in assay [2] it was 60%. Moreover, the half-maximal effective concentration (EC50) in assay [3] was determined as 4620 nM; in assay [4] it was 2240 nM.

Turning to `Cc1cccc(Cc2cnc(CCc3ccc(-c4ccccc4C(=O)O)cc3)[nH]2)c1`, the Activity in assay [1] was 89%; in assay [2], 87%. In addition, the figures for the 50% effective concentration (EC50) in assay [3] and in assay [4] were 4310 nM and 75 nM, respectively.

For `CCCCc1cnc(C(CCCC)Cc2ccc(-c3ccccc3C(=O)O)cc2)[nH]1` (stereo not drawn), the Activity worked out at 96% in assay [1] and 66% in assay [2]. The figures for the half-maximal effective concentration (EC50) in assay [3] and in assay [4] were 2660 nM and 527 nM, respectively.

Consider `CC(C)(C)c1cnc(CCc2ccc(-c3ccccc3C(=O)O)cc2)[nH]1`, for which the Activity turned out to be 108% in assay [1] and 45% in assay [2]. In addition, the concentration for a half-maximal effect (EC50) stood at 4330 nM in assay [3] and 2740 nM in assay [4].

On to `CCCCc1cnc(Cc2ccc(-c3ccccc3C(=O)O)cc2)[nH]1`, for which the Activity in assay [1] and in assay [2] was 0% each time. The EC50 in assay [3] and in assay [4] was > 10000 nM each time.

As to `O=C(O)c1ccccc1-c1ccc(CCc2ncc(Cc3ccccc3F)[nH]2)cc1`, the Activity was 121% in assay [1] and 108% in assay [2]. Moreover, the EC50 amounted to 177 nM in assay [3] and 9.5 nM in assay [4].

In the case of `Cc1ccccc1Cc1cnc(CCc2ccc(-c3ccccc3C(=O)O)cc2)[nH]1`, the figures for the Activity in assay [1] and in assay [2] were 106% and 93%, respectively. Besides, the EC50 came out at 127 nM in assay [3] and 9.3 nM in assay [4].

`O=C(O)c1ccccc1-c1ccc(CCc2ncc(CCc3ccccc3)[nH]2)cc1`: the Activity in assay [1] was found to be 89%; in assay [2] it was 86%. Moreover, the concentration giving a half-maximal response (EC50) turned out to be 1320 nM in assay [3] and 174 nM in assay [4].

Regarding `Cc1ccc(Cc2cnc(CCc3ccc(-c4ccccc4C(=O)O)cc3)[nH]2)cc1`, the figures for the Activity in assay [1] and in assay [2] were 120% and 88%, respectively. Also, the EC50 in assay [3] is 2660 nM; in assay [4], 162 nM.

Turning to `O=C(O)c1ccccc1-c1ccc(CCc2ncc(CC3CCCC3)[nH]2)cc1`, the Activity in assay [1] amounted to 94%; in assay [2] it was 102%. Moreover, the figures for the 50% effective concentration (EC50) in assay [3] and in assay [4] were 133 nM and 7.9 nM, respectively.

Turning to `O=C(O)c1ccccc1-c1ccc(CCc2ncc(Cc3cccc(Cl)c3)[nH]2)cc1`, the Activity in assay [1] was 98%; in assay [2], 91%. The values for the EC50 in assay [3] and in assay [4] were 825 nM and 31 nM, respectively.

In the case of `O=C(O)c1ccccc1-c1ccc(CCc2ncc(CC3CCOCC3)[nH]2)cc1`, the Activity in assay [1] is 106%; in assay [2], 96%. Besides, the results for the EC50 in assay [3] and in assay [4] were 338 nM and 23 nM, respectively.

In the case of `N#Cc1ccc(Cc2cnc(CCc3ccc(-c4ccccc4C(=O)O)cc3)[nH]2)cc1`, the figures for the Activity in assay [1] and in assay [2] were 85% and 25%, respectively. The half-maximal effective concentration (EC50) in assay [3] was 5890 nM; in assay [4], 723 nM.

Consider `O=C(O)c1ccccc1-c1ccc(CCc2ncc(CC3CCCCC3)[nH]2)cc1`, for which the Activity in assay [1] was 102%; in assay [2], 104%. The EC50 in assay [3] came to 41 nM; in assay [4] it was 7.3 nM.

Consider `COc1ccc(Cc2cnc(CCc3ccc(-c4ccccc4C(=O)O)cc3)[nH]2)cc1`, for which the Activity in assay [1] was found to be 88%; in assay [2], 44%. Besides, the 50% effective concentration (EC50) in assay [3] came out at 5360 nM; in assay [4], 513 nM.

On to `O=C(O)c1ccccc1-c1ccc(CCc2ncc(CC3CC3)[nH]2)cc1`, for which the Activity in assay [1] was found to be 144%; in assay [2], 96%. Moreover, the EC50 amounted to 1000 nM in assay [3] and 72 nM in assay [4].

Turning to `O=C(O)c1ccccc1-c1ccc(CCc2ncc(Cc3ccc(Cl)cc3)[nH]2)cc1`, the Activity in assay [1] is 105%; in assay [2] it was 89%. Moreover, the concentration for a half-maximal effect (EC50) in assay [3] amounted to 2290 nM; in assay [4], 102 nM.

Consider `CCC(C)(C)Cc1c[nH]c(CCc2ccc(-c3ccccc3C(=O)O)cc2)n1`, for which the results for the Activity in assay [1] and in assay [2] were 94% and 101%, respectively. Besides, the results for the EC50 in assay [3] and in assay [4] were 25 nM and 9.6 nM, respectively.

`O=C(O)c1ccccc1-c1ccc(CCc2ncc(Cc3cccc(F)c3F)[nH]2)cc1`: the values for the Activity in assay [1] and in assay [2] were 110% and 104%, respectively. Further, the EC50 in assay [3] stood at 87 nM; in assay [4], 8 nM.

For the compound `CCCCc1cnc(CCCc2ccc(-c3ccccc3C(=O)O)cc2)[nH]1`, the Activity was found to be 101% in assay [1] and 54% in assay [2]. Moreover, the EC50 in assay [3] came out at 5600 nM; in assay [4] it was 382 nM.

On to `CCCCc1cnc(/C=C/c2ccc(-c3ccccc3C(=O)O)cc2)[nH]1`, for which the Activity in assay [1] stood at 39%; in assay [2], 8%. In addition, the concentration giving a half-maximal response (EC50) was 4380 nM in assay [3] and 10000 nM in assay [4].

Consider `O=C(O)c1ccccc1-c1ccc(CCc2ncc(CC3CCC3)[nH]2)cc1`, for which the Activity in assay [1] is 99%; in assay [2], 105%. The figures for the concentration for a half-maximal effect (EC50) in assay [3] and in assay [4] were 588 nM and 7.1 nM, respectively.

As to `COc1cccc(Cc2cnc(CCc3ccc(-c4ccccc4C(=O)O)cc3)[nH]2)c1`, the Activity in assay [1] came to 80%; in assay [2], 73%. The EC50 in assay [3] was determined as 4120 nM; in assay [4], 79 nM.

For the compound `CC(C)(C)CCc1cnc(CCc2ccc(-c3ccccc3C(=O)O)cc2)[nH]1`, the Activity is 99% in assay [1] and 102% in assay [2]. In addition, the concentration for a half-maximal effect (EC50) came to 39 nM in assay [3] and 6.2 nM in assay [4].

Consider `COc1ccccc1Cc1cnc(CCc2ccc(-c3ccccc3C(=O)O)cc2)[nH]1`, for which the Activity in assay [1] came to 101%; in assay [2] it was 88%. Further, the EC50 in assay [3] is 1720 nM; in assay [4], 163 nM.

In the case of `CCCCc1cnc(C(C)Cc2ccc(-c3ccccc3C(=O)O)cc2)[nH]1` (stereo not drawn), the Activity turned out to be 110% in assay [1] and 79% in assay [2]. Further, the results for the concentration giving a half-maximal response (EC50) in assay [3] and in assay [4] were 2760 nM and 184 nM, respectively.

On to `O=C(O)c1ccccc1-c1ccc(CCc2ncc(C3CCCCC3)[nH]2)cc1`, for which the figures for the Activity in assay [1] and in assay [2] were 116% and 102%, respectively. Moreover, the concentration giving a half-maximal response (EC50) in assay [3] was found to be 375 nM; in assay [4] it was 14.7 nM.

As for `O=C(O)c1ccccc1-c1ccc(CCc2ncc(CCC3CCCCC3)[nH]2)cc1`, the Activity is 101% in assay [1] and 94% in assay [2]. Besides, the EC50 in assay [3] came to 642 nM; in assay [4] it was 33 nM.

On to `O=C(O)c1ccccc1-c1ccc(CCc2ncc(Cc3ccccc3Cl)[nH]2)cc1`, for which the Activity in assay [1] was 109%; in assay [2], 100%. The 50% effective concentration (EC50) was 292 nM in assay [3] and 22 nM in assay [4].

As for `N#Cc1ccccc1Cc1cnc(CCc2ccc(-c3ccccc3C(=O)O)cc2)[nH]1`, the Activity was found to be 139% in assay [1] and 51% in assay [2]. Further, the concentration for a half-maximal effect (EC50) is 5480 nM in assay [3] and 642 nM in assay [4].

Take `CCCCc1cnc(C(CCC)Cc2ccc(-c3ccccc3C(=O)O)cc2)[nH]1` (stereo not drawn): the Activity was 102% in assay [1] and 96% in assay [2]. For the same compound, the EC50 in assay [3] stood at 1180 nM; in assay [4], 165 nM.

In the case of `CCCCc1cnc(C(CC)Cc2ccc(-c3ccccc3C(=O)O)cc2)[nH]1` (stereo not drawn), the Activity in assay [1] is 104%; in assay [2], 76%. The concentration for a half-maximal effect (EC50) in assay [3] turned out to be 2720 nM; in assay [4] it was 340 nM.

For `O=C(O)c1ccccc1-c1ccc(CCc2ncc(Cc3ccccc3)[nH]2)cc1`, the figures for the Activity in assay [1] and in assay [2] were 111% and 109%, respectively. For the same compound, the figures for the half-maximal effective concentration (EC50) in assay [3] and in assay [4] were 205 nM and 11 nM, respectively.

With `N#Cc1cccc(Cc2cnc(CCc3ccc(-c4ccccc4C(=O)O)cc3)[nH]2)c1`, the figures for the Activity in assay [1] and in assay [2] were 102% and 95%, respectively. The results for the 50% effective concentration (EC50) in assay [3] and in assay [4] were 812 nM and 20 nM, respectively.

Regarding `O=C(O)c1ccccc1-c1ccc(CCc2ncc(-c3ccccc3)[nH]2)cc1`, the Activity in assay [1] stood at 101%; in assay [2] it was 30%.
